According to patent publication US6340575B1, “Methods and compositions for treating abnormal cell growth related to unwanted guanine nucleotide exchange factor activity” (Onyx Pharmaceuticals, Inc., priority 1997, dated 2002):

T1: Type II Rac-GEF (Homo sapiens, UniProt Q8N5V2)
T1 construct: made in house; host or cells: E. coli BL21(DE3)pLysS, plasmid pET21a
T1 sequence (Q8N5V2 264-710 limits assumed): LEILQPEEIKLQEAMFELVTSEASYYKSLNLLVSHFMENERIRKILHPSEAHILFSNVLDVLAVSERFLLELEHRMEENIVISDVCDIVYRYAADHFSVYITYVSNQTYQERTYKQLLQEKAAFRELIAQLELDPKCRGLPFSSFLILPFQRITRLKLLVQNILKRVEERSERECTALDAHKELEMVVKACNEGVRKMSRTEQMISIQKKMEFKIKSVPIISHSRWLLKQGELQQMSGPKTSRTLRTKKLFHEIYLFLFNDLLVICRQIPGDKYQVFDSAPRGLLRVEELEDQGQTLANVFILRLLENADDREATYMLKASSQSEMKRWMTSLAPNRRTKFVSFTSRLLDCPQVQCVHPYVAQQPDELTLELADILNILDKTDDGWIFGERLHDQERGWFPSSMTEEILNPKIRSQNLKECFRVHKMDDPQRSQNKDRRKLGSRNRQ


Legend:
[1] = target: T2, 85 kD portion of human Tiam-1 protein (Homo sapiens, UniProt Q13009); test: Tiam-1 Rac GEF activity assay (32P-GTP filter binding), 85 kD Tiam-1; type: biochemical; conditions: 85 kD Tiam-1 truncation; room temperature, 10 minutes
T2 construct: This prote in contained an intact PDZ domain, Dbl-homology (DH) domain and adjacent pleckstrin homology (PH) domain; made in house; host or cells: baculovirus-infected Sf9 (S. frugiperda) cells
T2 sequence (Q13009 837-1591 limits assumed): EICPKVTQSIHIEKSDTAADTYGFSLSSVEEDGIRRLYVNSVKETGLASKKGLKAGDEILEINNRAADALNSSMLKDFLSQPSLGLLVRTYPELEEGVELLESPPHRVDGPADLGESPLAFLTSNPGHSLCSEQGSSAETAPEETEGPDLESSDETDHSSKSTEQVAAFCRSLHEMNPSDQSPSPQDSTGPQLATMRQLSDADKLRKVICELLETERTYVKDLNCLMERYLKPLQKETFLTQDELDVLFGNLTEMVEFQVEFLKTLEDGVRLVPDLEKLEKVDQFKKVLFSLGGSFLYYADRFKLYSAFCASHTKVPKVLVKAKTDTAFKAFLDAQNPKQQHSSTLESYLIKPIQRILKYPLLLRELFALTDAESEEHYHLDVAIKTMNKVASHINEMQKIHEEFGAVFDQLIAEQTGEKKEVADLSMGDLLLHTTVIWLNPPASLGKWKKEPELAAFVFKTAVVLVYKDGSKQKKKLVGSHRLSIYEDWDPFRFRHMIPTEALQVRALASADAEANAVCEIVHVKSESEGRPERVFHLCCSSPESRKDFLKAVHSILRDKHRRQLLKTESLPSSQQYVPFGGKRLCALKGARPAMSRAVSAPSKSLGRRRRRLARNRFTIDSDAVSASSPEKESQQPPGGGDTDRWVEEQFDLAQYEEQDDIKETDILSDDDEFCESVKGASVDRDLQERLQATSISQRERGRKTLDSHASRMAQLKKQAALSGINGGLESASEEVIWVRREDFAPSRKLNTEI
Procedure: (§1) The GEF activity of the various Tiam-1 constructs described above was determined in the presence and absence of certain compounds. The following assay was utilized. Reactions were conducted at room temperature in Buffer A (20 mM Hepes pH7.3, 50 mM NaCl, 2 mM DTT, 2 mM MgCl2). All proteins and compounds were diluted to 4× their final concentrations in Buffer A (GTPases were diluted in Buffer A containing 1 μM GDP). To dilute Ascorbyl Stearate, Ascorbyl Palmitate, and Stearic Acid, 25 mM ETOH solutions were slowly added to Buffer A while vortexing vigorously. Other lipids were resuspended in aqueous solution with vortexing and bath sonication and then diluted into Buffer A. Reactions were prepared and at time 0, λ-^32P-GTP (DuPont NEN #NEG006H) was added to 4.5 nM, and after 10 minutes reactions were stopped by filtering onto nitrocellulose filters (Millipore #HAWP02500) and immediately washed with wash buffer (25 mM Tris 7.5, 100 mM NaCl, 30 mM MgCl2). Bound λ-^32P-GTP was measured, using standard techniques.
The 85 kD portion of human Tiam-1 protein was produced in insect cells and purified by affinity chromatography, as described above. This prote in contained an intact PDZ domain, Dbl-homology (DH) domain and adjacent pleckstrin homology (PH) domain (FIG. 3). […] Several other lipids were tested to determine the specificity of activation. […] As a control, experiments were run to determine if IP3, IP2, ascorbic acid, stearic acid and ascorbic acid with stearic acid were sufficient to activate the GEF activity of Tiam-1.

Type I Rac-GEF = test: Guanine nucleotide exchange activity of Type I Rac-GEF with added PH domain ligand; type: biochemical, human; conditions: Type I form lacking the Dbl insert region
Procedure: (§2) Two Rac-GEFs were tested for guanine nucleotide activity. Firstly, a Glu-epitope tag (MEYMPMEIRHD) (SEQ ID NO:32) was engineered onto the carboxy-terminal 423 amino acids of the Rac GEF encoded by EST No. 167059 by introducing the oligos 5′-[…]-3′ SEQ ID NO.5 and the complementary 5′-[…]-3′ SEQ ID NO.6 into the XhoI/EcoRI sites of the clone. The protein encoded by this construct is referred to as Type I Rac-GEF.
(§3) Next, the sequence encoding the insertion in the Dbl homology region, as described in Example 1, was engineered into the open reading frame in the expression plasmid pET21a (Novagen). The protein encoded by this construct is referred to as Type II Rac-GEF. The resulting expression plasmids were introduced into E. coli strain BL21(DE3)pLysS (Novagen), and the epitope tagged protein expression was induced with IPTG. The expressed proteins were purified using a resin with the antibody to the Glu-epitope covalently attached. The resulting proteins were partially pure and were assayed for exchange activity on Rac1, RhoA and Cdc42. See, Hart, in U.S. Ser. No. 60/029,979, filed Nov. 6, 1996 now abandoned.

Type II Rac-GEF = target: T1, Type II Rac-GEF; test: Guanine nucleotide exchange activity of Type II Rac-GEF with added PH domain ligand; type: biochemical; conditions: Type II form containing the Dbl insert region
Procedure: as §2, §3

[2] = test system: Other truncations of Tiam-1, all containing the DH and PH domains; test: Tiam-1 Rac GEF activity assay, other truncations containing the DH and PH domains; type: biochemical, human; conditions: other Tiam-1 truncations containing DH and PH domains
Procedure: as §1
(§4) It has been previously reported that Tiam-1 has GEE activity in the absence absence of lipids. See, Michiels, F., Habets, G. G., Stam, J. C., van der Kammen, R. A., and Collard, J. G. (1995) Nature 375,338-340. Those studies used a miouse version containing additional upstream sequences, including the N-terminal PH domain and the coiled-coil region. […]

135 kD Tiam-1 truncation = target: T3, 135 kD Tiam-1 truncation (Homo sapiens, UniProt Q13009); test: Tiam-1 Rac GEF activity assay (32P-GTP filter binding), 135 kD Tiam-1; type: biochemical
T3 construct: made in house; host or cells: baculovirus-infected Sf9 (S. frugiperda) cells
T3 sequence (Q13009 402-1591 limits assumed): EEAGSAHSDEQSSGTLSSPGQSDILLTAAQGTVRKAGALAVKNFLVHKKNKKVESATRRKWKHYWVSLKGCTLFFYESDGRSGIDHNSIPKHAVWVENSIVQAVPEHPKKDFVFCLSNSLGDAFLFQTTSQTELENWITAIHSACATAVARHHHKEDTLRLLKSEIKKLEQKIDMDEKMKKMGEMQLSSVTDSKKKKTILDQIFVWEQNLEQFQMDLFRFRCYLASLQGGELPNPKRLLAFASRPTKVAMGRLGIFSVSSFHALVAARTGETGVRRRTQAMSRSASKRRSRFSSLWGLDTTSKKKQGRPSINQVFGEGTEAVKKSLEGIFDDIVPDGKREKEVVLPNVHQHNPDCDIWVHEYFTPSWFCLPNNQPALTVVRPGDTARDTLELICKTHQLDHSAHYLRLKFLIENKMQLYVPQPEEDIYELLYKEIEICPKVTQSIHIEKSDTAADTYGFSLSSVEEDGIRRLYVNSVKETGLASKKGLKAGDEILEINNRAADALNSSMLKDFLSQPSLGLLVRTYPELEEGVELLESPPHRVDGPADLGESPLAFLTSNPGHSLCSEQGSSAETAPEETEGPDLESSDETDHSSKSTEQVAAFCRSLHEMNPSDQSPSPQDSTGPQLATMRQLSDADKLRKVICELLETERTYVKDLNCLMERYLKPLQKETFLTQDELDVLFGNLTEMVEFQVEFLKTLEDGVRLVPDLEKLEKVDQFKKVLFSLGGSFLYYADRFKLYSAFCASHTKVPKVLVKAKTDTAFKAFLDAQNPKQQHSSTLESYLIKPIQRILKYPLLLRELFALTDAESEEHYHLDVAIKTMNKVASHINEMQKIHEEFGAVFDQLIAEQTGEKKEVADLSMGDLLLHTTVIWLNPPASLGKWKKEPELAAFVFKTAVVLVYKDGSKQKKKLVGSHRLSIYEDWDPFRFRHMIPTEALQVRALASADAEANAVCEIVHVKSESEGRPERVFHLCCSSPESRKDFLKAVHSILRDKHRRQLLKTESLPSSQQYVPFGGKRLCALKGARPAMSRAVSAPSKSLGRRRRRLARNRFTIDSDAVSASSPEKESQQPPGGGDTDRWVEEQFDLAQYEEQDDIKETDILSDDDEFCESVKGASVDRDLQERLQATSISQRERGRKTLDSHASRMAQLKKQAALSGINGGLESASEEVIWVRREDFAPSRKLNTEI
Procedure: as §1, §4

ΔPH versions of Tiam-1 = test: Tiam-1 Rac GEF activity assay, truncations with deleted C-terminal PH domain; type: biochemical, human; conditions: truncations lacking half of the C-terminal PH domain and the rest of the C-terminus
Procedure: ΔPH versions of Tiam-1: The oligonucleotides 5′-[…]-3′ SEQ ID NO.24 and 5′-[…]-3′ SEQ ID NO.25 were used as linkers to recircularize Eco47III (4487) and XmaI-digested pAcC4-based expression vectors containing the 135 kD, 106 kD, 85 kD, and 66 kD versions of Tiam-1.
as §1, with “techniques. […]” for “techniques.”

Cdc42 = test: Exchange activity of Rac GEF on Cdc42; type: biochemical; conditions: partially pure Glu-tagged protein
Procedure: as §2, §3

Rac1 = test: Exchange activity of Rac GEF on Rac1; type: biochemical; conditions: partially pure Glu-tagged protein
Procedure: as §2, §3

RhoA = test: Exchange activity of Rac GEF on RhoA; type: biochemical; conditions: partially pure Glu-tagged protein
Procedure: as §2, §3

Molecule | stimulation of Tiam-1 GEF activity (nucleotide exchange on Rac 1) [1] | also measured
O[C@@H](CS)[C@@H](O)CS [DTT] | not to significantly stimulate | 
O=P(O)(O)O[C@@H]1[C@H](O)[C@H](O)[C@@H](OP(=O)(O)O)[C@H](OP(=O)(O)O)[C@H]1O [IP3] | incapable of stimulating GEF activity | 
O=C(O)CCP(CCC(=O)O)CCC(=O)O [TCEP, Tris (2-carboxyethyl)phosphine] | not to significantly stimulate | 
CCCCCCCCCCCCCCCCCC(=O)OC[C@H](O)[C@H]1OC(=O)C(O)=C1O [ascorbyl stearate] | stimulated the rate of Tiam-1-mediated nucleotide exchange | effect of addition on exchange activity of Type I Rac-GEF (Type I Rac-GEF): unaffected; effect of addition on exchange activity of Type II Rac-GEF (Type II Rac-GEF): strongly stimulated; stimulation of GEF activity on Rac 1 [2]: stimulated GEF activity; stimulation of Tiam-1 GEF activity towards Rac (135 kD Tiam-1 truncation): greatly stimulated; activation of Tiam-1 GEF activity (ΔPH versions of Tiam-1): not activated
CCCCCCCCO[C@@H]1O[C@H](CO)[C@@H](O)[C@H](O)[C@H]1O [nOG] | not to significantly stimulate | 
CCCCCCCCCCCCCCCCCC(=O)O [stearic acid] | incapable of stimulating GEF activity | 
NP40 | not to significantly stimulate | 
phosphatidylinositol-3,4,5-trisphosphate | weak effects | 
phosphatidylinositol-4,5-bisphosphate | significantly enhanced | 
phosphatidylserine | weak effects | 
Rac GEF: Glu-epitope tagged Type I and Type II Rac-GEF proteins expressed in E. coli, partially pure (protein) MEYMPMEIRHDLEILQPEEIKLQEAMFELVTSEASYYKSLNLLVSHFMENERIRKILHPSEAHILFSNVLDVLAVSERFLLELEHRMEENIVISDVCDIVYRYAADHFSVYITYVSNQTYQERTYKQLLQEKAAFRELIAQLELDPKCRGLPFSSFLILPFQRITRLKLLVQNILKRVEERSERECTALDAHKELEMVVKACNEGVRKMSRTEQMISIQKKMEFKIKSVPIISHSRWLLKQGELQQMSGPKTSRTLRTKKLFHEIYLFLFNDLLVICRQIPGDKYQVFDSAPRGLLRVEELEDQGQTLANVFILRLLENADDREATYMLKASSQSEMKRWMTSLAPNRRTKFVSFTSRLLDCPQVQCVHPYVAQQPDELTLELADILNILDKTDDGWIFGERLHDQERGWFPSSMTEEILNPKIRSQNLKECFRVHKMDDPQRSQNKDRRKLGSRNRQ |  | exchange activity on Cdc42 (Cdc42): displays activity; exchange activity on Rac1 (Rac1): primarily selective; exchange activity on RhoA (RhoA): displays activity

More lines, main results first:

stimulation of Tiam-1 GEF activity (nucleotide exchange on Rac 1) [1] | Molecule | also measured
significantly enhanced | CCCCCCCCCCCCCCCC(=O)OC[C@H](O)[C@H]1OC(=O)C(O)=C1O [Ascorbyl palmitate] | 
incapable of stimulating GEF activity | O=C1O[C@H]([C@@H](O)CO)C(O)=C1O [ascorbic acid] | 
not to significantly stimulate | TRITON X-100 | 
little or no effect | phosphatidyiholine | 
little or no effect | phosphatidylglycerol | 
little or no effect | phosphatidylinositol | 
significantly enhanced | phosphatidylinositol-4-phosphate | 
